Molecular target: Fibroblast growth factor receptor 3 (Homo sapiens, UniProt P22607)
Experiment: Inhibition of N-terminal GST-fused human FGFR3 cytoplasmic domain (436 to 806(end) amino acids) using CSKtide substrate incubated for 90 mins

Sequence of Fibroblast growth factor receptor 3 (P22607 whole entry, the tested form may be a part): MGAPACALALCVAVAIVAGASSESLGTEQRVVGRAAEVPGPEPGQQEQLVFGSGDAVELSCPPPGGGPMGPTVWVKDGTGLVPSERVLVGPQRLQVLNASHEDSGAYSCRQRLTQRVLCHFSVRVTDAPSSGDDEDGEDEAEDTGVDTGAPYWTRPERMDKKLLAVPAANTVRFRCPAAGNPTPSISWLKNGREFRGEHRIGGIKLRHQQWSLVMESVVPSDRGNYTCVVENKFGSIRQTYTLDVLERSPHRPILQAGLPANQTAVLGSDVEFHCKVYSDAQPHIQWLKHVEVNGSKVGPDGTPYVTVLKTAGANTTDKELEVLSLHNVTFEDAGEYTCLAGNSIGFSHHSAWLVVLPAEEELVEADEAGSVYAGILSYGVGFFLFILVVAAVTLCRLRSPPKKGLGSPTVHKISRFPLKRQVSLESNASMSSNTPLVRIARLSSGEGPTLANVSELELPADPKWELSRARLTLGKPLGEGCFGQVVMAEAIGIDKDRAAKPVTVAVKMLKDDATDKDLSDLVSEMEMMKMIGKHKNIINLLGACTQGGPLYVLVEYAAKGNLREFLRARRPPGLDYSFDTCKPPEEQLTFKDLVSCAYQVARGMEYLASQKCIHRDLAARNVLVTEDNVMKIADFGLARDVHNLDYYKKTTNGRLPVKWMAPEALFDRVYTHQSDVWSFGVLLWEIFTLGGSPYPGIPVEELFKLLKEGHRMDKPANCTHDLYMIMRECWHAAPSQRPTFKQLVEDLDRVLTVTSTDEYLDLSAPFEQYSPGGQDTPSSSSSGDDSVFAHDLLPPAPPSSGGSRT

IC50: 150 nM
SMILES: C=CC(=O)Nc1cccc(C)c1Nc1ncc2cc(-c3c(Cl)c(OC)cc(OC)c3Cl)ccc2n1

Reference: ChEMBL document CHEMBL4400505, “Fibroblast Growth Factor Receptor 4 (FGFR4) Selective Inhibitors as Hepatocellular Carcinoma Therapy: Advances and Prospects” (J Med Chem, 2019)
